This note sets out measurements from BindingDB's records for doi:10.1021/jm00055a007 (Abbott Laboratories, 1993).

The target in the experiment is Gonadotropin-releasing hormone receptor (Rattus norvegicus) (UniProt P30969).
Sequence of Gonadotropin-releasing hormone receptor (Rattus norvegicus) (P30969 whole entry, looked up): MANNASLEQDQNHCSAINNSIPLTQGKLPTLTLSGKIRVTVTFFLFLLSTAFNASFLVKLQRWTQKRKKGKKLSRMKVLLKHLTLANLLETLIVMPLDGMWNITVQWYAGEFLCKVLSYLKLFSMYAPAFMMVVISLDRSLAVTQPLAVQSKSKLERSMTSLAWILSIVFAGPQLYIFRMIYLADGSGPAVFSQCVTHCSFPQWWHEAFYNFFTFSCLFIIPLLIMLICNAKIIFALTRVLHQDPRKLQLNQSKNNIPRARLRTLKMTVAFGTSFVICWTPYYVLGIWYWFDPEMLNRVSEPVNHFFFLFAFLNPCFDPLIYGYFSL
What is called Ki is a dissociation constant, usually derived from enzyme kinetics or from competition with a known ligand. Turning to `CC(C)C[C@H](NC(=O)[C@@H](Cc1ccc2ccccc2c1)NC(=O)[C@H](Cc1ccc(O)cc1)NC(=O)[C@H](CO)NC(=O)[C@H](Cc1c[nH]c2ccccc12)NC(=O)[C@H](Cc1c[nH]cn1)NC(=O)[C@@H]1CCC(=O)N1)C(=O)N(C)[C@@H](CCCN=C(N)N)C(=O)N1CCC[C@H]1C(=O)NCC(N)=O` [nafarelin 8NMeArg], the Ki worked out at 28.2 nM. That is a double-digit nanomolar value.
As for `CC(C)C[C@H](NC(=O)[C@@H](Cc1ccc2ccccc2c1)NC(=O)[C@H](Cc1ccc(O)cc1)NC(=O)[C@H](CO)NC(=O)[C@H](Cc1c[nH]c2ccccc12)NC(=O)[C@H](Cc1c[nH]cn1)NC(=O)[C@@H]1CCC(=O)N1)C(=O)N[C@@H](CCCN=C(N)N)C(=O)N1CCC[C@H]1C(=O)N(C)CC(N)=O` [nafarelin 10SarNH2], affinity was put at a Ki of 0.03 nM.
`CC(C)C[C@H](NC(=O)[C@@H](Cc1ccc2ccccc2c1)NC(=O)[C@H](Cc1ccc(O)cc1)NC(=O)[C@H](CO)NC(=O)[C@H](Cc1cccc2ccccc12)NC(=O)[C@H](Cc1cnc[nH]1)NC(=O)[C@@H]1CCC(=O)N1)C(=O)N[C@@H](CCCN=C(N)N)C(=O)N1CCC[C@H]1C(=O)NCC(N)=O` [nafarelin 31Nal] showed a Ki of 0.03 nM.
On to `CC(C)C[C@H](NC(=O)[C@@H](Cc1ccc2ccccc2c1)NC(=O)[C@H](Cc1ccc(O)cc1)NC(=O)[C@H](CO)NC(=O)[C@H](Cc1c[nH]c2ccccc12)NC(=O)[C@H](Cc1c[nH]cn1)NC(=O)[C@@H]1CCC(=O)N1)C(=O)N[C@@H](CCCNC(=N)N)C(=O)N1CCC[C@H]1C(=O)NCC(N)=O` [nafarelin], for which the affinity, expressed as Ki, was 0.01 nM. This Ki lies about 3-fold lower than the previous one.
